Data reported in patent US11447638B2, “Acetalanthraquinone derivatives useful for cellular staining” (BIOSTATUS LIMITED, priority 2016, dated 2022).

Columns and labels:
[1] = Absorption and fluorescence spectra of compounds in PBS or HEPES; assay type: physicochemical; details: for fluorescence emission, 540 nm (Ex in PBS): excited at 540 nm
Method: The compounds were exited at 540 nm and at the wavelength of their absorption peak 1 (λ1 nm). The far-red fluorescent DNA dye DRAQ5 was used as reference.
Compounds were dissolved in DMSO (Sigma) to 20 mM stock concentration. DRAQ5 (Biostatus Ltd) was used as a control anthraquinone agent dissolved in deionised water. Working solutions were prepared in PBS (phosphate buffered saline; Sigma) or HEPES (4-(2-hydroxyethyl)-1-piperazineethanesulfonic acid; Sigma) at 20 or 40 μM. Probe solutions (20 μM), respectively in PBS or HEPES, were pipetted into a 1 mL quartz cuvette (Thermo Fisher Scientific). After obtaining baseline spectra in relevant buffer to zero the instrument, absorbance measurements were obtained using a Beckmann Coulter DU 800 UV/Visible spectrophotometer. The excitation wavelengths were scanned from 280 to 800 nm. Fluorescent spectral scans were performed using a Perkin Elmer LS-50B Luminescence spectrophotometer. To obtain emission scans, the excitation wavelength was set accordingly to the maximum values for each agent or another designated excitation wavelength that matches typical laser lines; and the emission wavelength were scanned from 400 nm to 900 nm in 1 nm increments. A Xenon flash lamp was used as the light source, with the lamp energy set to high. For each data point ten measurements were acquired with the photomultiplier tube sensitivity set at 125.
Compounds were excited at a wavelength corresponding to the first absorbance peak 1 (FIG. 1A and FIG. 1B show absorption (line) and fluorescence (dots) spectra of compounds; both are normalised to peak value.

[2] = test system: fixed human osteosarcoma U-2 OS cells; assay: Labelling of fixed cells, wide-field fluorescence microscopy; assay type: cell-based; details: 20 μM, 1 h exposure in PBS, FIG. 2
Method: Cells were seeded in a 24 well coverslip bottomed-plate, cultured overnight in McCoys media. 24 or 48 hours later the cells were washed gently with 3×2 mL PBS per well. The PBS was removed and 0.5 mL of 4% paraformaldehyde solution [a 4% paraformaldehyde solution in PBS was made fresh each time from a 16% stock solution (Thermo Fisher Scientific)] was added in each well and cells were incubated for 30 min. The paraformaldehyde was removed and cells were washed 3×2 mL PBS per well. 1 mL of PBS or HEPES was added to each well.
(§1) Before analysis, cells were incubated at 37° C. in the dark for the period designated. Samples were analysed directly without any further washing step. For live cell labelling cells were seeded, plated in a similar way, into a similar multi-well dish for optimal optical performance and could be used across all microscope platforms.
(§2) This basic protocol was the standard for testing the patterns of AAQ agents at 20 μM, compared to 20 μM of DRAQ5 as the benchmark reference (both in terms of cellular location and ability to detect the red fluorescence).
Low resolution wide-field fluorescence microscopy was used to evaluate cell labelling in fixed human osteosarcoma U-2 OS cells. The system was an Axiovert 100 microscope (Carl Zeiss, Welwyn Garden City, UK) ×10 0.3 NA air objective lens and an ORCA-ER CCD camera (Hamamatsu, Reading, UK). Illumination was controlled by a shutter in front of the transmission lamp. Image capture was controlled using Metamorph software. This evaluates the ability of the compounds to label cellular compartments without active uptake or efflux prohibiting delivery into the given cell. Image collection was performed after 1 h of exposure to probes in PBS. The calibration bar represents 50 μm.

A549 live cells = assay: Loading of A549 live cells, wide-field fluorescence microscopy; assay type: cell-based, human; details: 20 μM, 30 min incubation, FIG. 3
Method: as §1, §2
Low resolution wide-field fluorescence microscopy was used to evaluate cell uptake and localisation of the probe compounds. The system was an Axiovert 100 microscope (Carl Zeiss, Welwyn Garden City, UK) ×10 0.3 NA air objective lens and an ORCA-ER CCD camera (Hamamatsu, Reading, UK). Illumination was controlled by a shutter in front of the transmission lamp. Image capture was controlled using Metamorph software. Human non-small cell lung cancer A549 cell line was used as the cell model to determine whether variation of the probe loading and localisation occurred in cell population sustaining a “side population” (SP) (Smith P J, Wiltshire M, Chappell S C, Cosentino L, Burns P A, Pors K, Errington R J. Kinetic analysis of intracellular Hoechst 33342—DNA interactions by flow cytometry: misinterpretation of side population status? Cytometry A 2013; 83:161-9) with a known capacity to efflux xenobiotic molecules, including the DNA dye Hoechst 33342.
Cells were incubated for 30 min with each compound and then images were collected at a 30 ms exposure time using low resolution wide-field fluorescence microscopy. Using an Axiovert 100 microscope (Carl Zeiss, Welwyn Garden City, UK) ×10 0.3 NA air objective lens and an ORCA-ER CCD camera (Hamamatsu, Reading, UK). Illumination was controlled by a shutter in front of the transmission lamp. Image capture was controlled using Metamorph software. The calibration bar represents 50 μm.

U-2 OS cells = assay: Confocal laser scanning microscopy (CLSM) localisation analysis; assay type: cell-based, human; details: 30 min incubation, Ex 637 nm, Em >665 nm, FIG. 4 and 5
Method: Confocal laser scanning microscopy (CLSM) was used to analyse the localisation of compounds BST-100, BST-101 and BST-106 with the U-2 OS cells, as it permitted the acquisition of volume limited optical sections through the cell and media. Excitation (637 nm) and emission (>665 nm) values for the probe analysis were the optimal conditions. The data sets obtained were processed and assembled into a single maximum projection image.
The patterns were analysed after 30 min incubation at different z depths and eliminating the solution background. The nucleus/cytoplasm ratio was calculated to quantify the localisation of the probe per cell.
A Radiance CLSM (BioRad Microscience) was used attached to an inverted Nikon microscope. Image acquisition was performed using excitation (637 nm) and emission (>665 nm) wavelengths. The histogram plot reports the nucleus/cytoplasm index to determine DNA binding in live cells. The calibration bar represents 10 μm.
The compounds BST-108, BST-109 were analysed in the same way.

A549 cells = assay: Pulse exposure to probes, time-lapse, reimaged after 72 h; assay type: cell-based, human; details: 20 uM for 15 mins, washout, T=72 h
Method: In this regard, A549 cells were seeded in a 24 well coverslip bottomed-plate, cultured overnight in McCoys media for 24 or 48 hours. The plates were placed onto an inverted automated microscope, with the capacity for acquiring an image sequence of different wells (therefore exposure to different agent labelling). An Axiovert 100 microscope (Carl Zeiss, Welwyn Garden City, UK) was fitted with an incubator for 37° C./5% CO2 maintenance (Solent Scientific, Portsmouth, UK), and an ORCA-ER CCD camera (Hamamatsu, Reading, UK). Illumination was controlled by a shutter in front of the transmission lamp, and an x, y positioning stage with separate z-focus (Prior Scientific, Cambridge, UK) controlled multi-field acquisition. Image capture was controlled using Metamorph software.
Cells were exposed to a constant dose (0-5 μM) or a pulsed dose of 0 or 20 μM agent for 15 minutes followed by washout with warmed full media.
All images were collected with a ×10 (PH1) apochromat objective lens providing a field size of 500 times 500 microns. In this case a phase contrast image was collected every 30 minutes for 72 hours. Single cell growth and expansion can be tracked over time. The cells were harvested and run through a flow cytometry (typically a FACS Calibur 635 nm excitation/661/16 emission).
A549 cells were loaded with 20 uM BST-101, BST-109 or BST-110 for 15 mins followed by washout. Cells were then time-lapsed and reimaged after T=72 h, as before, […]

MCF7 = assay: MTT cellular viability (growth inhibition) assay, MCF7; assay type: cell-based; details: Homo sapiens, 0.25-100 μM, 72 h, Table 3
Method: (§3) The viability of A549 or MCF7 in response to compounds was determined using the MTT (3-(4,5-dimethylthiazolyl-2-)-2, 5-diphenyltetrazolium bromide) assay according to the protocol set out in Mosmann T., Rapid colorimetric assay for cellular growth and survival: application to proliferation and cytotoxicity assays. Journal of immunological methods 1983; 65:55-63.
(§4) Initially, cells were seeded into a rounded-bottom 96 well plate (Corning) at six different cell seeding densities (0.5×104, 1×104, 2×104, 3×104, 4×104, and 5×104) per mL of R10 media (cells/mL) in order to optimise the assay and establish the most suitable seeding assay. Concentration of 1×10^4 cells/mL was determined to be the optimum seeding density for both cell lines for 96 h total incubation. A control lane contained supplemented R10 only. The 96 well plates were incubated overnight at 37° C., 5% CO2 and 100% humidity to allow cell adhesion. Cells were then treated respectively with novel AAQs (0.25-100 μM) or growth inhibition (IC50) of compounds of the invention was studied against MCF7 and A549 cancer cell lines. Compounds were tested with a concentration range between 0.25 and 100 μM for 72 h and doxorubicin, as positive cytotoxic control, was tested in parallel at the same doses.

A549 = assay: MTT cellular viability (growth inhibition) assay, A549; assay type: cell-based; details: Homo sapiens, 0.25-100 μM, 72 h, Table 3
Method: as §3, §4

2780/cp70 = assay: Further tests against cell lines, 2780/cp70; assay type: cell-based; details: ratio to A2780
MCP1 = assay: Further tests against cell lines, MCP1; assay type: cell-based; details: ratio to A2780
Method: (§5) Further tests were carried out against A2780, 2780AD and MCP1 cell lines.

2780AD = assay: Further tests against cell lines, 2780AD; assay type: cell-based; details: ratio to A2780
Method: as §5

SMILES | RF (2780/cp70) | RF (MCP1) (MCP1) | RF (2780AD) | other results
COC(CCCCNc1ccc(NCCCCC(OC)OC)c2c1C(=O)c1ccccc1C2=O)OC [BST-101, 1,4-Bis(5,5-dimethoxypentylamino)anthracene-9,10-dione] |  |  |  | peak excitation wavelength ([1]; excitation wavelength used for fluorescence spectra of FIG. 1A/1B): 540 nm; fluorescence emission, 540 nm (Ex in PBS) ([1]; PBS, 20 μM): 712 nm; staining pattern in fixed cells [2]: diffuse cytoplasmic staining, with some perinuclear and nucleoli labelling; staining pattern in live cells (A549 live cells): heterogeneous cytoplasmic staining; subcellular localisation by CLSM (U-2 OS cells): low levels of probe in the perinuclear region, with probable overload in Golgi body and large vesicles; cell division and signal retention / location after pulse exposure (A549 cells): dividing, and signal retained in the same membrane compartment as at the start; IC50 (MCF7): 750 nM; IC50 (A549): > 100000 nM
COC(CNCCNc1ccc(NCCNCC(OC)OC)c2c1C(=O)c1c(O)ccc(O)c1C2=O)OC [BST-200, 1,4-bis((2-((2,2-dimethoxyethyl)amino)ethyl)amino)-5,8-dihydroxyanthracene-9,10-dione] | 0.09 | 0.26 | 2.9 | fluorescence emission, 540 nm (Ex in PBS) ([1]; PBS, 20 μM): 690 nm; fluorescence emission, λ1 nm (Ex in HEPES) ([1]; excited at absorption peak 1 (λ1), HEPES, 20 μM): 684 nm; fluorescence emission, λ1 nm (Ex in PBS) ([1]; excited at absorption peak 1 (λ1), PBS, 20 μM): 688 nm; fluorescence brightness / background in fixed cells [2]: very bright fluorescence; staining pattern in fixed cells [2]: cytoplasmic staining, good object recognition, and some heterogeneity on nuclear staining; staining pattern in live cells (A549 live cells): heterogeneity on cytoplasmic load on, with bright fluorescence signal and staining of mitotic figures
COC(CNCCCCCCNc1ccc(NCCCCCCNCC(OC)OC)c2c1C(=O)c1c(O)ccc(O)c1C2=O)OC [BST-300] | 0.17 | 0.37 | 1.07 | 
COC(CNCCCCCCNc1ccc(NCCN(C)C)c2c1C(=O)c1c(O)ccc(O)c1C2=O)OC [BST-301, 1-((6-((2,2-dimethoxyethyl)amino)hexyl)amino)-4-((2-(dimethylamino)ethyl)amino)-5,8-dihydroxyanthracene-9,10-dione] | 0.10 | 0.39 | 2.8 | 
COC(CNCCCNc1ccc(NCCN(C)C)c2c1C(=O)c1c(O)ccc(O)c1C2=O)OC [BST-303, 1-((3-((2,2-dimethoxyethyl)amino)propyl)amino)-4-((2-(dimethylamino)ethyl)amino)-5,8-dihydroxyanthracene-9,10-dione] | 0.19 | 0.36 | 9.7 | 
COC(CNCCCCCNc1ccc(NCCN(C)C)c2c1C(=O)c1c(O)ccc(O)c1C2=O)OC [BST-305, 1-((5-((2,2-dimethoxyethyl)amino)pentyl)amino)-4-((2-(dimethylamino)ethyl)amino)-5,8-dihydroxyanthracene-9,10-dione] | 0.14 | 0.53 | 5.2 | 
COC(CNCCCCNc1ccc(NCCN(C)C)c2c1C(=O)c1c(O)ccc(O)c1C2=O)OC [BST-304, 1-((4-((2,2-dimethoxyethyl)amino)butyl)amino)-4-((2-(dimethylamino)ethyl)amino)-5,8-dihydroxyanthracene-9,10-dione] | 0.07 | 0.36 | 11.8 | 
